In patent publication US10870619B2 (CJ CHEILJEDANG CORPORATION, priority 2016, dated 2020):
Like-named read-outs stand apart in the source and are kept apart here. One block for each molecule: values may come before it.

Conditions: crystals obtained by the crystallization process of the respective example (pH adjustment, coagulant, pH readjustment, cooling rate vary)
Description: As used herein, the term “bulk density” refers to the density measured based on the volume including voids generated between particles when powder is filled into a container. In particular, the density of powder which is measured after treating the powder by tapping a cylinder filled with the powder with a constant force so as to make the powder within the cylinder dense is called tapped bulk density (hereinafter, “BD”).

SMILES: CSCC[C@H](N)C(=O)O [Comparative Example 1, L-methionine, reference compound]
BD (tapped bulk density) of the obtained L-methionine crystals: 190 g/L
BD (tapped bulk density) of the obtained L-methionine crystals (listed as Comp. Ex. 1): 190 g/L

SMILES: CSCC[C@H](N)C(=O)O [Comparative Example 2, L-methionine, reference compound]
BD (tapped bulk density) of the obtained L-methionine crystals: 520 g/L
BD (tapped bulk density) of the obtained L-methionine crystals (listed as Comp. Ex. 2): 520 g/L

SMILES: CSCC[C@H](N)C(=O)O [Comparative Example 3, L-methionine, reference compound]
BD (tapped bulk density) of the obtained L-methionine crystals: 500 g/L
BD (tapped bulk density) of the obtained L-methionine crystals (listed as Comp. Ex. 3): 500 g/L

SMILES: CSCC[C@H](N)C(=O)O [Comparative Example 4, L-methionine, reference compound]
BD (tapped bulk density) of the obtained L-methionine crystals: 500 g/L
BD (tapped bulk density) of the obtained L-methionine crystals (listed as Comp. Ex. 4): 500 g/L

SMILES: CSCC[C@H](N)C(=O)O [Comparative Example 5, L-methionine, reference compound]
BD (tapped bulk density) of the obtained L-methionine crystals: 490 g/L
BD (tapped bulk density) of the obtained L-methionine crystals (listed as Comp. Ex. 5): 490 g/L

SMILES: CSCC[C@H](N)C(=O)O [Comparative Example 6, L-methionine, reference compound]
BD (tapped bulk density) of the obtained L-methionine crystals: 450 g/L
BD (tapped bulk density) of the obtained L-methionine crystals (listed as Comp. Ex. 6): 450 g/L

SMILES: CSCC[C@H](N)C(=O)O [Comparative Example 7, L-methionine, reference compound]
BD (tapped bulk density) of the obtained L-methionine crystals: 510 g/L
BD (tapped bulk density) of the obtained L-methionine crystals (listed as Comp. Ex. 7): 510 g/L

SMILES: CSCC[C@H](N)C(=O)O [Comparative Example 8, L-methionine, reference compound]
BD (tapped bulk density) of the obtained L-methionine crystals: 450 g/L
BD (tapped bulk density) of the obtained L-methionine crystals (listed as Comp. Ex. 8): 450 g/L

SMILES: CSCC[C@H](N)C(=O)O [Comparative Example 9, L-methionine, reference compound]
BD (tapped bulk density) of the obtained L-methionine crystals: 460 g/L
BD (tapped bulk density) of the obtained L-methionine crystals (listed as Comp. Ex. 9): 460 g/L

SMILES: CSCC[C@H](N)C(=O)O [Comparative Example 10, L-methionine, reference compound]
BD (tapped bulk density) of the obtained L-methionine crystals: 630 g/L
BD (tapped bulk density) of the obtained L-methionine crystals (listed as Comp. Ex. 10): 630 g/L

SMILES: CSCC[C@H](N)C(=O)O [Comparative Example 11, L-methionine, reference compound]
BD (tapped bulk density) of the obtained L-methionine crystals (listed as Comp. Ex. 11): 410 g/L

SMILES: CSCC[C@H](N)C(=O)O [Comparative Example 12, L-methionine, reference compound]
BD (tapped bulk density) of the obtained L-methionine crystals: 660 g/L
BD (tapped bulk density) of the obtained L-methionine crystals (listed as Comp. Ex. 12): 660 g/L

SMILES: CSCC[C@H](N)C(=O)O [Comparative Example 13, L-methionine, reference compound]
BD (tapped bulk density) of the obtained L-methionine crystals: 400 g/L
BD (tapped bulk density) of the obtained L-methionine crystals (listed as Comp. Ex. 13): 400 g/L

SMILES: CSCC[C@H](N)C(=O)O [Example 1, L-methionine]
BD (tapped bulk density) of the obtained L-methionine crystals: 370 g/L
BD (tapped bulk density) of the obtained L-methionine crystals (listed as Ex. 1): 370 g/L

SMILES: CSCC[C@H](N)C(=O)O [Example 2, L-methionine]
BD (tapped bulk density) of the obtained L-methionine crystals: 350 g/L
BD (tapped bulk density) of the obtained L-methionine crystals (listed as Ex. 2): 350 g/L

SMILES: CSCC[C@H](N)C(=O)O [Example 3, L-methionine]
BD (tapped bulk density) of the obtained L-methionine crystals: 610 g/L
BD (tapped bulk density) of the obtained L-methionine crystals (listed as Ex. 3): 610 g/L

SMILES: CSCC[C@H](N)C(=O)O [Example 4, L-methionine]
BD (tapped bulk density) of the obtained L-methionine crystals: 590 g/L
BD (tapped bulk density) of the obtained L-methionine crystals (listed as Ex. 4): 590 g/L

SMILES: CSCC[C@H](N)C(=O)O [Example 5, L-methionine]
BD (tapped bulk density) of the obtained L-methionine crystals: 590 g/L
BD (tapped bulk density) of the obtained L-methionine crystals (listed as Ex. 5): 590 g/L

SMILES: CSCC[C@H](N)C(=O)O [Example 6, L-methionine]
BD (tapped bulk density) of the obtained L-methionine crystals: 580 g/L
BD (tapped bulk density) of the obtained L-methionine crystals (listed as Ex. 6): 580 g/L

SMILES: CSCC[C@H](N)C(=O)O [Example 7, L-methionine]
BD (tapped bulk density) of the obtained L-methionine crystals: 570 g/L
BD (tapped bulk density) of the obtained L-methionine crystals (listed as Ex. 7): 570 g/L

SMILES: CSCC[C@H](N)C(=O)O [Example 8, L-methionine]
BD (tapped bulk density) of the obtained L-methionine crystals: 570 g/L
BD (tapped bulk density) of the obtained L-methionine crystals (listed as Ex. 8): 570 g/L

SMILES: CSCC[C@H](N)C(=O)O [Example 9, L-methionine]
BD (tapped bulk density) of the obtained L-methionine crystals: 560 g/L
BD (tapped bulk density) of the obtained L-methionine crystals (listed as Ex. 9): 560 g/L

Now from value to molecule:

BD (tapped bulk density) of the obtained L-methionine crystals: 580 g/L
BD (tapped bulk density) of the obtained L-methionine crystals (listed as Ex. 10): 580 g/L
SMILES: CSCC[C@H](N)C(=O)O [Example 10, L-methionine]

BD (tapped bulk density) of the obtained L-methionine crystals: 550 g/L
BD (tapped bulk density) of the obtained L-methionine crystals (listed as Ex. 11): 550 g/L
SMILES: CSCC[C@H](N)C(=O)O [Example 11, L-methionine]

BD (tapped bulk density) of the obtained L-methionine crystals: 560 g/L
BD (tapped bulk density) of the obtained L-methionine crystals (listed as Ex. 12): 560 g/L
SMILES: CSCC[C@H](N)C(=O)O [Example 12, L-methionine]

BD (tapped bulk density) of the obtained L-methionine crystals: 530 g/L
BD (tapped bulk density) of the obtained L-methionine crystals (listed as Ex. 13): 530 g/L
SMILES: CSCC[C@H](N)C(=O)O [Example 13, L-methionine]

BD (tapped bulk density) of the obtained L-methionine crystals: 600 g/L
BD (tapped bulk density) of the obtained L-methionine crystals (listed as Ex. 14): 600 g/L
SMILES: CSCC[C@H](N)C(=O)O [Example 14, L-methionine]

BD (tapped bulk density) of the obtained L-methionine crystals: 500 g/L
BD (tapped bulk density) of the obtained L-methionine crystals (listed as Ex. 15): 500 g/L
SMILES: CSCC[C@H](N)C(=O)O [Example 15, L-methionine]

BD (tapped bulk density) of the obtained L-methionine crystals: 480 g/L
BD (tapped bulk density) of the obtained L-methionine crystals (listed as Ex. 16): 480 g/L
SMILES: CSCC[C@H](N)C(=O)O [Example 16, L-methionine]

BD (tapped bulk density) of the obtained L-methionine crystals: 690 g/L
BD (tapped bulk density) of the obtained L-methionine crystals (listed as Ex. 17): 690 g/L
SMILES: CSCC[C@H](N)C(=O)O [Example 17, L-methionine]

BD (tapped bulk density) of the obtained L-methionine crystals: 730 g/L
BD (tapped bulk density) of the obtained L-methionine crystals (listed as Ex. 18): 730 g/L
SMILES: CSCC[C@H](N)C(=O)O [Example 18, L-methionine]

BD (tapped bulk density) of the obtained L-methionine crystals: 750 g/L
BD (tapped bulk density) of the obtained L-methionine crystals (listed as Ex. 19): 750 g/L
SMILES: CSCC[C@H](N)C(=O)O [Example 19, L-methionine]

BD (tapped bulk density) of the obtained L-methionine crystals: 760 g/L
BD (tapped bulk density) of the obtained L-methionine crystals (listed as Ex. 20): 760 g/L
SMILES: CSCC[C@H](N)C(=O)O [Example 20, L-methionine]

BD (tapped bulk density) of the obtained L-methionine crystals: 800 g/L
BD (tapped bulk density) of the obtained L-methionine crystals (listed as Ex. 21): 800 g/L
SMILES: CSCC[C@H](N)C(=O)O [Example 21, L-methionine]

BD (tapped bulk density) of the obtained L-methionine crystals: 700 g/L
BD (tapped bulk density) of the obtained L-methionine crystals (listed as Ex. 22): 700 g/L
SMILES: CSCC[C@H](N)C(=O)O [Example 22, L-methionine]
